Values after ≈ are worked out from the molar mass of the structure shown. Read-outs that look alike come from different tables or passages of the source.
How the values were obtained:
[1] = Solution-mediated transformation studies (relative physical stability of Form A and Form B versus temperature); type: physicochemical
Procedure: Solution-mediated transformation studies were conducted to establish the relative physical stability of Form A and Form B versus temperature. Excess solid was suspended in a slurry using various solvents, including mixtures of benzyl benzoate and castor oil. After equilibration times of 1 day to two weeks, the excess solid was filtered and analyzed by powder x-ray diffraction to determine the crystalline form.

[2] = Solubility of crystalline HPC in organic solvents; type: physicochemical; conditions: organic solvent or mixture, 25° C.

SMILES	relative physical stability ([1]; below 27° C.)	relative physical stability ([1]; below room temperature, additional studies)	physical stability on storage ([1]; storage temperatures of room temperature (20-25° C.) or below (refrigeration))	solubility ([2]; ethanol, read-out: solubility in ethanol)	solubility ([2]; ethyl acetate, read-out: solubility in ethyl acetate)	solubility ([2]; isopropanol, read-out: solubility in isopropanol)	solubility ([2]; methanol, read-out: solubility in methanol)	relative physical stability ([1]; above 35° C.)
CCCCCC(=O)O[C@]1(C(C)=O)CC[C@H]2[C@@H]3CCC4=CC(=O)CC[C@]4(C)[C@H]3CC[C@@]21C [Form B, 17-α-hydroxyprogesterone caproate]	more stable (less soluble)	likely to be more stable	physically stable polymorph	–	–	–	–	–
CCCCCC(=O)O[C@]1(C(C)=O)CC[C@H]2[C@@H]3CCC4=CC(=O)CC[C@]4(C)[C@H]3CC[C@@]21C [Form A, 17-α-hydroxyprogesterone caproate]	–	–	–	~118 mg/mL (≈ 275 mM)	~419 mg/mL (≈ 978 mM)	~91 mg/mL (≈ 212 mM)	~142 mg/mL (≈ 331 mM)	more stable (less soluble)

Source: patent publication US10556922B2, “Crystalline and amorphous forms of 17-alpha-hydroxyprogesterone caproate” (AMAG Pharmaceuticals, Inc., priority 2015, dated 2020)
